# According to PMC11590026, “Synthesis, enzyme inhibition, and docking studies of new schiff bases of disalicylic acid methylene-based derivatives as dual-target antibacterial agents” (Frontiers in Chemistry, 2024):
# Like-named read-outs stand apart in the source and are kept apart here.
# Key:
# [1] = tested on: E. coli; experiment: MIC/MBC assay, twofold serial dilution; format: cell-based, Escherichia coli; settings: Escherichia coli; for MBC: read-out: MBC; for MIC: read-out: MIC
# Procedure: (§1) The results of this in vitro assay test are consistent with the findings of the antimicrobial sensitivity test. […] It has lower antimicrobial activity than ciprofloxacin against all pathogens tested.
# (§2) The MBC differs from the MIC. […]
# (§3) 4.2.2. Minimum inhibitory concentration assay
# (§4) In 96-well microtiter plates and […] of fresh bacterial culture of a single McFarland unit overnight, a double serial dilution of each compound […] in sterile standard saline were prepared to every single source well. Ciprofloxacin antibiotic (5 mg / mL - 1) and normal saline were included as standard reference in each assay. The plates were incubated at 37 0C overnight. As an indicator of bacterial growth, […] of p-iodonitrotetrazolium violet (INT) was added to each well and incubated at 37 0C for 30 […]
# (§5) min. MIC values are recorded as the lowest concentration of the extract that completely inhibited bacterial growth that is clear well. The colorless tetrazolidium salt acts as an electron accepter and is reduced to a red colored formazan product by biological activity organisms. Where bacterial growth was inhibited, the solution in the well remained clear after incubation with INT. […]
# [2] = tested on: Gram-positive bacteria; experiment: MBC assay, Gram-positive bacteria together; format: cell-based; settings: Gram-positive bacteria (B. subtilis, S. aureus)
# From the text: The MBC differs from the MIC.
# [3] = tested on: B. subtilis; experiment: MIC/MBC assay, twofold serial dilution; format: cell-based, Bacillus subtilis; settings: Bacillus subtilis; for MBC: read-out: MBC; for MIC: read-out: MIC
# Procedure: as §1, §2, §3, §4, §5
# [4] = tested on: C. albicans; experiment: Antifungal assay (MIC/MFC), twofold serial dilution; settings: Candida albicans
# [5] = tested on: S. aureus; experiment: MIC/MBC assay, twofold serial dilution; format: cell-based, Staphylococcus aureus; settings: for MBC: read-out: MBC
# Procedure: as §1, §2, §3, §4, §5
# [6] = tested on: A. flavus; experiment: Antifungal assay (MIC/MFC), twofold serial dilution; settings: for MIC: A. flavus
# [7] = tested on: E. coli (ATCC BAA-196); experiment: Antibacterial assay against multi-drug resistant strains (MIC/MBC); format: cell-based, Escherichia coli; settings: Escherichia coli; for MBC: ATCCBAA196; for MIC: ATCCBAA196, read-out: MIC
# [8] = tested on: S. aureus (ATCC 43300) (MRSA); experiment: as above; format: cell-based, Staphylococcus aureus; settings: Staphylococcus aureus, S. aureus ATCC 43300 (MRSA); for MBC: read-out: MBC; for MIC: read-out: MIC
# [9] = Cell viability assay (MTT); format: cell-based; settings: human, MCF-10A cells (normal mammary gland epithelial cell line), 4-day incubation
# Procedure: The vitality of the investigated compounds was assessed using the MCF-10A cell line, which is a normal human mammary gland epithelial cell line. Following a 4-day incubation period on MCF-10A cells with a concentration of 50 µM for each compound being studied, the viability of the cells was assessed using the MTT test ([Hisham et al., 2022]; [Mahmoud et al., 2022]).
# 4.2.3. Cell Viability assay
# MTT assay was carried out to study the effect of compounds on mammary epithelial cells (MCF-10A). The medium in which cells were propagated contained Dulbecco's modified Eagle's medium (DMEM)/ Ham's F-12 medium (1:1) supplemented with epidermal growth factor (20 ng/mL), hydrocortisone (500 ng/mL), insulin (10 μg/mL), 2 mM glutamine and 10% fetal calf serum. After every 2-3 days, the cells were passaged using trypsin ethylenediamine tetra acetic acid (EDTA). The cells were seeded at a density of 10^4 cells mL-1 in flat-bottomed culture plates containing 96 wells each. After 24 h, medium was removed from the plates and the compounds in (in 0.1% DMSO) were added (in 200 μL medium to yield a final concentration of 0.1% v/v) to the wells of plates. A single compound was designated with four wells followed by incubation of plates for 96h at 37°C. After incubation, medium was removed completely from the plates followed by addition of MTT (0.4 mg/mL in medium) to each well and subsequent incubation of plates for 3h. MTT (along with the medium) was removed and DMSO (150μL) was added to each well of the culture plates, followed by vortexing and subsequent measurement of absorbance (at 540 nm) using microplate reader. The data are shown as percentage inhibition of proliferation in comparison with controls
# [10] = tested on: P. aeruginosa (ATCC BAA-2111); experiment: Antibacterial assay against multi-drug resistant strains (MIC/MBC); format: cell-based, Pseudomonas aeruginosa; settings: Pseudomonas aeruginosa; for MBC: ATCCBAA2111; for MIC: ATCCBAA2111, read-out: MIC
# [11] = tested on: P. aeruginosa; experiment: MIC/MBC assay, twofold serial dilution; format: cell-based, Pseudomonas aeruginosa; settings: Pseudomonas aeruginosa; for MBC: read-out: MBC; for MIC: read-out: MIC
# Procedure: as §1, §2, §3, §4, §5
# [12] = target: S. aureus DNA gyrase; design: method as in Alzahrani et al., 2022; settings: ref Alzahrani et al., 2022; read-out: S. aureus DNA gyrase inhibitor IC50; cited from earlier work
# [13] = Staphylococcus aureus, read-out: MIC
MIC [1] [µM],MIC [3] [µM],MIC [4] [µM],"MIC [5, 13] [µM]",MIC [6] [µM],MIC ([6]; Aspergillus flavus) [µM],MIC [7] [µM],MIC [8] [µM],MIC [10] [µM],Structure (SMILES),MBC [1] [µM],MBC [2] [µM],MBC [3] [µM],MFC [4] [µM],MBC ([5]; Staphylococcus aureus) [µM],MFC ([6]; Aspergillus flavus) [µM],MBC [7] [µM],MBC [8] [µM],"viability at 96 h, 50 µM [9] [%]",MBC [10] [µM],MBC [11] [µM],other results
0.069 ± 0.004,0.037 ± 0.002,22.9 ± 1,0.035 ± 0.002,19.50 ± 1,14.5 to 19.5,6.25 ± 0.25,5.9 ± 0.2,7.15 ± 0.5,COc1ccc2c(c1)/C(=N/NC(=O)c1cc(Cc3cc(Cl)c(O)c(C(=O)N/N=C4\C(=O)Nc5ccc(OC)cc54)c3)cc(Cl)c1O)C(=O)N2 [Compound 6e],0.095 ± 0.006,0.028 to 0.058,0.058 ± 0.003,50.2 ± 3,0.054 ± 0.003,40.2 ± 3,9.3 ± 0.6,7.8 ± 0.5,92,10.4 ± 0.7,0.097 ± 0.006,MIC [11]: 0.069 ± 0.005 µM
,,,,,,,,,CCN(CC)S(=O)(=O)c1ccc2c(c1)C1(C(=O)N2)C(C#N)=COC(c2ccccc2)=C1C(C)=O (stereo not drawn) [I],,,,,,,,,,,,IC50 [12]: 18.1 µM
0.066 ± 0.004,0.033 ± 0.002,21.3 ± 1,0.029,18.20 ± 1,14.5 to 19.5,5.3 ± 0.2,4.7 ± 0.2,6.85 ± 0.5,O=C1Nc2ccc(Br)cc2/C1=N/NC(=O)c1cc(Cc2cc(Cl)c(O)c(C(=O)N/N=C3\C(=O)Nc4ccc(Br)cc43)c2)cc(Cl)c1O [Compound 6c],0.088 ± 0.006,0.028 to 0.058,0.051 ± 0.003,44.8 ± 3,0.045 ± 0.002,35.9 ± 2,8.2 ± 0.6,7.1 ± 0.5,91,9.2 ± 0.6,0.085 ± 0.006,MIC [5]: 0.029 ± 0.002 µM; MIC [11]: 0.065 ± 0.005 µM
,,,,,,,,,O=C1Nc2ccc(S(=O)(=O)N3CCOCC3)cc2/C1=N/NC(=O)C12CC3CC(CC(C3)C1)C2 [II],,,,,,,,,,,,IC50 [12]: 19.3 µM
